Earlier results in patent US20130004545A1, “SLOW RELEASE PHARMACEUTICAL COMPOSITIONS OF ILOPERIDONE” (LUPIN LIMITED, priority 2009, published 2013).

What was measured:
[1] = for t1/2: metabolite of iloperidone
5-HT2A receptors = 5-HT2A receptors (Homo sapiens, UniProt P28223)
plasma proteins = settings: administered orally

5-HT2A receptors, sequence (P28223 whole entry): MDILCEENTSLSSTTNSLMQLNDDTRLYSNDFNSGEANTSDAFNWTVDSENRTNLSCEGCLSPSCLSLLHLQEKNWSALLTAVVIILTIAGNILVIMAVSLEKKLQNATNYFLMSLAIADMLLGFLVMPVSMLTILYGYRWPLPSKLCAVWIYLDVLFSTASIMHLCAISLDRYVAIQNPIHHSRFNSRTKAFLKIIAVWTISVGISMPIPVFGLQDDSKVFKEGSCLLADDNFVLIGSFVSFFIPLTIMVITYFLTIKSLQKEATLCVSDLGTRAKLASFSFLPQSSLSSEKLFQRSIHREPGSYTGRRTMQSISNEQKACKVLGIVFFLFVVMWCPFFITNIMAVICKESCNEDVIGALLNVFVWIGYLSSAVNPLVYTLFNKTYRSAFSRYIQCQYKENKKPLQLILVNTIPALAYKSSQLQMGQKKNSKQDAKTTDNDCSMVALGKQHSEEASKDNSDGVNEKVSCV

| SMILES | t1/2 [1] | receptor affinity (5-HT2A receptors) | binding to plasma proteins (plasma proteins) | Plasma level relative to Iloperidone ([1]; metabolite plasma level, reported) | tmax ([1]; metabolite, after oral administration of parent active ingredient) |
| --- | --- | --- | --- | --- | --- |
| COc1cc(C(=O)O)ccc1OCCCN1CCC(c2noc3cc(F)ccc23)CC1 [Example P95, 4-[3-[4-(6-fluoro-1,2,-benzisoxazol-3-yl)-1-piperidinyl]propoxy]-3-methoxy-benzoic acid] | 25.6 h | affinity for only 5-HT2A receptors |  |  |  |
| COc1cc(C(C)=O)ccc1OCCCN1CCC(c2noc3cc(F)ccc23)CC1 [Iloperidone] |  |  | highly bound to plasma proteins |  |  |
| COc1cc(C(C)O)ccc1OCCCN1CCC(c2noc3cc(F)ccc23)CC1 (stereo not drawn) [Example P88] | 25.6 h |  |  | approximately 1.5 times that of Iloperidone | 6 h |
